Where a name gives a salt, the structure may show the parent alone.
Target: Bile salt export pump (Homo sapiens, UniProt O95342)
Assay type: ADME

| Structure (SMILES) | IC50 [µM] |
| --- | --- |
| Nc1nc2c(c(=O)[nH]1)N(C=O)C(CNc1ccc(C(=O)N[C@@H](CCC(=O)O)C(=O)O)cc1)CN2 (stereo partly specified) [LEUCOVORIN] | > 1000 |
| c1ccc([C@H]2CN3CCSC3=N2)cc1 [LEVAMISOLE] | > 1000 |
| CC1(C)Oc2ccc(C#N)cc2[C@@H](N2CCCC2=O)[C@@H]1O [LEVCROMAKALIM] | 353 |
| COc1ccc2c(c1)N(C[C@H](C)CN(C)C)c1ccccc1S2 [LEVOMEPROMAZINE] | 127 |
| CN=C(N)NC(=O)Nc1c(C)cccc1C [LIDAMIDINE] | > 1000 |
| Cc1nc(C)c(C)nc1C [LIGUSTRAZINE] | > 1000 |
| Cc1cccc(C)c1CNc1cc(C(=O)NCCO)cn2c(C)c(C)nc12 [LINAPRAZAN] | < 10 |
| CC(=O)NC[C@H]1CN(c2ccc(N3CCOCC3)c(F)c2)C(=O)O1 [LINEZOLID] | > 1000 |
| O=C(O)CCCCC1CCSS1 (stereo not drawn) [LIPOIC ACID, ALPHA] | > 1000 |
| COc1c(OC)c(OC(C)=O)c2cc(Cl)ccc2c1OC(C)=O [LONAPALENE] | 14.4 |
| CCCCc1nc(Cl)c(CO)n1Cc1ccc(-c2ccccc2-c2nn[nH]n2)cc1 [LOSARTAN] | < 10 |
| Cc1ccc(Cl)c(Nc2ccccc2C(=O)O)c1Cl [MECLOFENAMIC ACID] | 27.2 |
| CC(=O)O[C@]1(C(C)=O)CC[C@H]2[C@@H]3C=C(C)C4=CC(=O)CC[C@]4(C)[C@H]3CC[C@@]21C [MEGESTROL ACETATE] | < 10 |
| CC12CC3CC(C)(C1)CC(N)(C3)C2 [MEMANTINE] | > 1000 |
| C[N+]1(C)CCCC(OC(=O)C(O)(c2ccccc2)c2ccccc2)C1 (stereo unspecified) [MEPENZOLATE BROMIDE] | > 1000 |
| Cc1ccccc1OCC(O)CO (stereo unspecified) [MEPHENESIN] | > 1000 |
| CCC1(c2ccccc2)NC(=O)N(C)C1=O (stereo unspecified) [MEPHENYTOIN] | > 1000 |
| Cc1cc2c(OCC(O)CNC(C)C)cccc2[nH]1 (stereo unspecified) [MEPINDOLOL] | 35.9 to 36 |
| CCCNC(C)(C)COC(=O)c1ccccc1 [MEPRYLCAINE] | > 1000 |
| C[C@H](N)[C@H](O)c1cccc(O)c1 [METARAMINOL] | > 1000 |
| CN1C[C@H](CNC(=O)OCc2ccccc2)C[C@@H]2c3cccc4c3c(cn4C)C[C@H]21 [METERGOLINE] | < 10 |
| COc1ccccc1OCC(O)COC(N)=O (stereo unspecified) [METHOCARBAMOL] | > 1000 |
| COc1ccc(OC)c(C(O)C(C)N)c1 (stereo unspecified) [METHOXAMINE] | > 1000 |
| C[C@H]1C[C@@H]2[C@H]([C@@H](O)C[C@@]3(C)[C@H]2CC[C@]3(O)C(=O)CO)[C@@]2(C)C=CC(=O)C=C12 [METHYLPREDNISOLONE] | 33 |

| Structure (SMILES) | IC50 [µM] |
| --- | --- |
| CC(CN(C)C)CN1c2ccccc2Sc2ccccc21 (stereo unspecified) [METHYLPROMAZINE] | 73.7 |
| Cc1cc(=O)[nH]c(=S)[nH]1 [METHYLTHIOURACIL] | > 1000 |
| CC[C@@H](CO)NC(=O)[C@@H]1C=C2c3cccc4c3c(cn4C)C[C@H]2N(C)C1 [METHYSERGIDE] | 33.1 |
| CC(=O)Nc1c(I)c(C(=O)N[C@H]2C(O)O[C@H](CO)[C@@H](O)[C@@H]2O)c(I)c(N(C)C(C)=O)c1I (stereo partly specified) [METRIZAMIDE] | > 1000 |
| CC(C)(C(=O)c1cccnc1)c1cccnc1 [METYRAPONE] | 229 |
| CN1CCN2c3ccccc3Cc3ccccc3C2C1 (stereo unspecified) [MIANSERIN] | 46.8 to 47 |
| Clc1ccc(COC(Cn2ccnc2)c2ccc(Cl)cc2Cl)c(Cl)c1 (stereo unspecified) [MICONAZOLE] | < 10 |
| CCCc1c2nc(C(=O)O)cc(NC)c2cc2c(=O)cc(C(=O)O)oc12 [MINOCROMIL] | > 1000 |
| Clc1ccc(C(c2ccccc2Cl)C(Cl)Cl)cc1 (stereo unspecified) [MITOTANE] | < 10 |
| COc1c(N2C[C@@H]3CCCN[C@@H]3C2)c(F)cc2c(=O)c(C(=O)O)cn(C3CC3)c12 [MOXIFLOXACIN] | > 1000 |
| CC(C)(C)NCC(O)COc1cccc2c1CC(O)C(O)C2 (stereo unspecified) [NADOLOL] | > 1000 |
| CCN(CC)CCOC(=O)C(Cc1cccc2ccccc12)CC1CCCO1 (stereo unspecified) [NAFRONYL] | < 11 |
| COc1ccccc1N1CCN(CC(O)COc2cccc3ccccc23)CC1 (stereo unspecified) [NAFTOPIDIL] | < 10 |
| C=CCN1CC[C@]23c4c5ccc(O)c4O[C@H]2C(=O)CC[C@@]3(O)[C@H]1C5 [NALOXONE] | 549 |
| O=C1CC[C@@]2(O)[C@H]3Cc4ccc(O)c5c4[C@@]2(CCN3CC2CC2)[C@H]1O5 [NALTREXONE] | > 1000 |
| c1ccc2c(CC3=NCCN3)cccc2c1 [NAPHAZOLINE] | > 1000 |
| COc1ccc2cc([C@H](C)C(=O)O)ccc2c1 [NAPROXEN] | > 1000 |
| CC[C@@H](Nc1c(Nc2cccc(C(=O)N(C)C)c2O)c(=O)c1=O)c1ccc(C)o1 [NAVARIXIN ANHYDROUS] | < 10 |
| CCCc1c2oc(C(=O)O)cc(=O)c2cc2c(=O)cc(C(=O)O)n(CC)c12 [NEDOCROMIL] | > 1000 |
| CCc1nn(CCCN2CCN(c3cccc(Cl)c3)CC2)c(=O)n1CCOc1ccccc1 [NEFAZODONE] | < 10 |
| O=c1ncn2nc(Sc3ccc(F)cc3F)ccc2c1-c1c(Cl)cccc1Cl [NEFLAMAPIMOD] | < 10 |
| CN(C)C(=O)Oc1cccc([N+](C)(C)C)c1 [NEOSTIGMINE] | > 1000 |
| Cc1ccnc2c1NC(=O)c1cccnc1N2C1CC1 [NEVIRAPINE] | 295 |
| COC(=O)C1=C(C)NC(C)=C(C(=O)OCCN(C)Cc2ccccc2)C1c1cccc([N+](=O)[O-])c1 (stereo unspecified) [NICARDIPINE] | < 10 |

| Structure (SMILES) | IC50 [µM] |
| --- | --- |
| CN1CCC[C@H]1c1cccnc1 [NICOTINE] | > 1000 |
| COC(=O)C1=C(C)NC(C)=C(C(=O)OC)C1c1ccccc1[N+](=O)[O-] [NIFEDIPINE] | 18.7 |
| COC(=O)C1=C(C#N)NC(C)=C(C(=O)OC(C)C)C1c1cccc([N+](=O)[O-])c1 (stereo unspecified) [NILVADIPINE] | < 10 |
| NC(=O)c1cc([N+](=O)[O-])cc([N+](=O)[O-])c1 [NITROMIDE] | 185 |
| CC(CCc1ccccc1)NC(C)C(O)c1ccc(O)cc1 (stereo unspecified) [NYLIDRIN] | 280 |
| CC1COc2c(N3CCN(C)CC3)c(F)cc3c(=O)c(C(=O)O)cn1c23 (stereo unspecified) [OFLOXACIN] | > 1000 |
| Cc1ccccc1C(OCCN(C)C)c1ccccc1 (stereo unspecified) [ORPHENADRINE] | > 1000 |
| C[C@@H]1O[C@@H](O[C@H]2C[C@@H](O)[C@]3(CO)[C@H]4[C@H](O)C[C@]5(C)[C@@H](C6=CC(=O)OC6)CC[C@]5(O)[C@@H]4CC[C@]3(O)C2)[C@H](O)[C@H](O)[C@H]1O [OUABAIN] | > 1000 |
| CNCC(O)c1ccc(O)cc1 (stereo unspecified) [OXEDRINE] | > 1000 |
| CN(C(=O)CN(CCO)CC(=O)N(C)C(C)(C)Cc1ccccc1)C(C)(C)Cc1ccccc1 [OXETHAZAINE] | < 10 |
| CCCOc1ccc2nc(NC(=O)OC)[nH]c2c1 [OXIBENDAZOLE] | > 1000 |
| C=CCOc1ccccc1OCC(O)CNC(C)C (stereo unspecified) [OXPRENOLOL] | > 1000 |
| Oc1cccc2cccnc12 [OXYQUINOLINE] | > 1000 |
| CC(C)(CO)[C@@H](O)C(=O)NCCC(=O)O [PANTOTHENIC ACID] | > 1000 |
| COc1ccc(Cc2nccc3cc(OC)c(OC)cc23)cc1OC [PAPAVERINE] | < 10 |
| CCCCc1ccc2[nH]c(NC(=O)OC)nc2c1 [PARBENDAZOLE] | > 1000 |
| Fc1ccc([C@@H]2CCNC[C@H]2COc2ccc3c(c2)OCO3)cc1 [PAROXETINE HYDROCHLORIDE] | 68.9 |
| N=C(N)c1ccc(OCCCCCOc2ccc(C(=N)N)cc2)cc1 [PENTAMIDINE] | > 1000 |
| C1CCc2nnnn2CC1 [PENTYLENETETRAZOL] | > 1000 |
| C1CCC(C(CC2CCCCN2)C2CCCCC2)CC1 (stereo unspecified) [PERHEXILINE] | 14.4 |
| OCCN1CCN(CCCN2c3ccccc3Sc3ccc(Cl)cc32)CC1 [PERPHENAZINE] | 34.8 |
| NC(=O)NC(=O)Cc1ccccc1 [PHENACEMIDE] | > 1000 |
| NNCCc1ccccc1 [PHENELZINE] | > 897 |

| Structure (SMILES) | IC50 [µM] |
| --- | --- |
| CC(Oc1ccccc1)C(=O)N[C@@H]1C(=O)N2[C@@H]1SC(C)(C)[C@@H]2C(=O)O (stereo partly specified) [PHENETHICILLIN] | < 10 |
| [H]/N=C(/N)N/C(=N/[H])NCCc1ccccc1 [PHENFORMIN] | > 1000 |
| CN(C)CCC(c1ccccc1)c1ccccn1 (stereo unspecified) [PHENIRAMINE MALEATE] | > 1000 |
| CN1C(=O)CC(c2ccccc2)C1=O (stereo unspecified) [PHENSUXIMIDE] | > 1000 |
| CC(N/C(=N\C#N)Nc1ccncc1)C(C)(C)C (stereo unspecified) [PINACIDIL ANHYDROUS] | 161 |
| CCc1ccc(CCOc2ccc(CC3SC(=O)NC3=O)cc2)nc1 (stereo unspecified) [PIOGLITAZONE] | 0.262 |
| CCN1CCN(C(=O)N[C@@H](C(=O)N[C@@H]2C(=O)N3[C@@H]2SC(C)(C)[C@@H]3C(=O)O)c2ccccc2)C(=O)C1=O [PIPERACILLIN] | 197 |
| CCCCOCCOCCOCc1cc2c(cc1CCC)OCO2 [PIPERONYL BUTOXIDE] | < 10 |
| CN1CCN(CC(=O)N2c3ccccc3C(=O)Nc3cccnc32)CC1 [PIRENZEPINE] | > 1000 |
| NS(=O)(=O)c1cc(C(=O)O)cc(N2CCCC2)c1Oc1ccccc1 [PIRETANIDE] | > 791 |
| C[n+]1ccccc1/C=N/O [PRALIDOXIME] | > 1000 |
| O=C(C1CCCCC1)N1CC(=O)N2CCc3ccccc3C2C1 (stereo unspecified) [PRAZIQUANTEL] | 60.3 |
| COc1cc2nc(N3CCN(C(=O)c4ccco4)CC3)nc(N)c2cc1OC [PRAZOSIN] | 172 |
| COc1cc(NC(C)CCCN)c2ncccc2c1 (stereo unspecified) [PRIMAQUINE] | 53.1 |
| CCCC(C(=O)OCCN(CC)CC)(c1ccccc1)c1ccccc1 [PROADIFEN] | < 13.2 |
| CCCN(CCC)S(=O)(=O)c1ccc(C(=O)O)cc1 [PROBENECID] | 587 |
| CCCc1c2oc(C(=O)O)cc(=O)c2cc2c(=O)cc(C(=O)O)oc12 [PROBICROMIL] | > 1000 |
| CC(C)(Sc1cc(C(C)(C)C)c(O)c(C(C)(C)C)c1)Sc1cc(C(C)(C)C)c(O)c(C(C)(C)C)c1 [PROBUCOL] | > 1000 |
| CCN(CC)CCOC(=O)c1ccc(N)cc1 [PROCAINE] | > 1000 |
| CCCc1c2c(cc3c(=O)cc(C(=O)O)oc13)CCCC2 [PROCROMIL] | 606 |
| CCCNCC(O)COc1ccccc1C(=O)CCc1ccccc1 (stereo unspecified) [PROPAFENONE] | 53.7 |
| CC(C)[N+](C)(CCOC(=O)C1c2ccccc2Oc2ccccc21)C(C)C [PROPANTHELINE BROMIDE] | 291 |
| CC(Cc1ccc2c(c1)OCO2)NCC(O)c1ccc(O)c(O)c1 (stereo unspecified) [PROTOKYLOL HYDROCHLORIDE] | > 982 |
| CNCCCC1c2ccccc2C=Cc2ccccc21 [PROTRIPTYLINE] | 129 |

Source: ChEMBL document CHEMBL4017441, “Mitigating the inhibition of human bile salt export pump by drugs: opportunities provided by physicochemical property modulation, in silico modeling, and structural modification” (Drug Metab Dispos, 2012)
